Experimental data taken from PubChem BioAssay AID330 (DTP/NCI, 2004).
Several values for one entry are separate records, joined by “and”; a condition that tells them apart may be missing. Identical values can stand only once. Inconclusive results and toxic doses are left out. The calls were made as follows: active = survival T/C of 150% or more; inactive = T/C below 125% in these data.

Test system: P388 leukemia ip, CD2F1 mice, survival T/C
Assay: NCI In Vivo Anticancer Drug Screen. Data for tumor model P388 Leukemia (intraperitoneal) in CD2F1 (CDF1) mice
Conditions: endpoint: median survival time, higher = longer survival
Outline: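 Mice carrying the transplanted tumor received test compound or vehicle. Survival was recorded in each group, and the value is the treated-group measurement divided by that of the vehicle-treated control group.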

[1] = dose: 100.0 mg/kg/injection, schedule: Q01DX001 (ip), vehicle: Klucel (hydroxypropylcellulose) (HPC)
[2] = dose: 50.0 mg/kg/injection, schedule: Q01DX009 (ip), vehicle: saline with Tween-80
[3] = dose: 100.0 mg/kg/injection, schedule: Q01DX009 (ip), vehicle: saline with Tween-80
[4] = dose: 200.0 mg/kg/injection, schedule: Q01DX009 (ip), vehicle: saline with Tween-80

Measured: T/C

COC(=O)C1c2c(C)cc3n2C(C=CC3)C1C(=O)OC (stereo unspecified)
inactive: dose: 100.0 mg/kg/injection, schedule: Q04DX003 (ip), vehicle: Klucel (hydroxypropylcellulose) (HPC) 94 % of control | dose: 200.0 mg/kg/injection, schedule: Q04DX003 (ip), vehicle: Klucel (hydroxypropylcellulose) (HPC) 93 % of control | dose: 400.0 mg/kg/injection, schedule: Q04DX003 (ip), vehicle: Klucel (hydroxypropylcellulose) (HPC) 101 % of control

[Cl][Sn]([Cl])([c]1ccccc1)[c]1ccccc1.c1ccc(-c2nnc(-c3ccccn3)nc2-c2ccccc2)cc1
inactive: dose: 0.79 mg/kg/injection, schedule: Q01DX005 (ip), vehicle: Klucel (hydroxypropylcellulose) (HPC) 101 % of control and 120 % of control | dose: 1.56 mg/kg/injection, schedule: Q01DX005 (ip), vehicle: Klucel (hydroxypropylcellulose) (HPC) 120 % of control | dose: 3.12 mg/kg/injection, schedule: Q01DX005 (ip), vehicle: Klucel (hydroxypropylcellulose) (HPC) 123 % of control

Nn1cnc2c(ncn2C2OC(CO)C(O)C2O)c1=O (stereo unspecified)
inactive: dose: 60.0 mg/kg/injection, schedule: Q01DX005 (ip), vehicle: Klucel (hydroxypropylcellulose) (HPC) 98 % of control | dose: 120.0 mg/kg/injection, schedule: Q01DX005 (ip), vehicle: Klucel (hydroxypropylcellulose) (HPC) 99 % of control | dose: 240.0 mg/kg/injection, schedule: Q01DX005 (ip), vehicle: Klucel (hydroxypropylcellulose) (HPC) 97 % of control

CC(=O)OCc1c(Cl)nc2sccn12
inactive: [1] 104 % of control and 108 % of control | dose: 200.0 mg/kg/injection, schedule: Q01DX001 (ip), vehicle: Klucel (hydroxypropylcellulose) (HPC) 109 % of control and 117 % of control

CCNC(=O)OCc1c(Cl)nc2n1CCS2
inactive: dose: 25.0 mg/kg/injection, schedule: Q01DX001 (ip), vehicle: Klucel (hydroxypropylcellulose) (HPC) 103 % of control | dose: 50.0 mg/kg/injection, schedule: Q01DX001 (ip), vehicle: Klucel (hydroxypropylcellulose) (HPC) 110 % of control | [1] 105 % of control

Cc1ccc(C)n1-c1ccsc1C(=O)NNC(=O)CCl
inactive: dose: 7.5 mg/kg/injection, schedule: Q01DX005 (ip), vehicle: Klucel (hydroxypropylcellulose) (HPC) 101 % of control | dose: 15.0 mg/kg/injection, schedule: Q01DX005 (ip), vehicle: Klucel (hydroxypropylcellulose) (HPC) 99 % of control | dose: 30.0 mg/kg/injection, schedule: Q01DX005 (ip), vehicle: Klucel (hydroxypropylcellulose) (HPC) 100 % of control

O=C1C(Cl)=C(NC(CO)(CO)CO)C(=O)c2ccccc21
inactive: dose: 25.0 mg/kg/injection, schedule: Q01DX001 (ip), vehicle: saline with Tween-80 92 % of control | dose: 50.0 mg/kg/injection, schedule: Q01DX001 (ip), vehicle: saline with Tween-80 93 % of control | dose: 100.0 mg/kg/injection, schedule: Q01DX001 (ip), vehicle: saline with Tween-80 101 % of control

CC(=O)Nc1c(Cl)cc2c(c1Cl)Cc1cc(N(CCO)CCO)ccc1-2
inactive: dose: 6.25 mg/kg/injection, schedule: Q01DX009 (ip), vehicle: saline 97 % of control | dose: 12.5 mg/kg/injection, schedule: Q01DX009 (ip), vehicle: saline 93 % of control | dose: 25.0 mg/kg/injection, schedule: Q01DX009 (ip), vehicle: saline 93 % of control | dose: 50.0 mg/kg/injection, schedule: Q01DX009 (ip), vehicle: saline 94 % of control

COc1cc(OC)c(/C=C\c2ccnc3ccccc23)c(OC)c1
inactive: [2] 97 % of control | [3] 90 % of control | [4] 104 % of control

O=C(Nc1cccc2c(OC(=O)C(Cl)Cl)c(N=Nc3ccc(S(=O)(=O)Nc4nccs4)cc3)cc(N=Nc3ccc(S(=O)(=O)Nc4nccs4)cc3)c12)C(Cl)Cl (tested in a mixture with another compound)
inactive: dose: 3.12 mg/kg/injection, schedule: Q01DX009 (ip), vehicle: saline with Tween-80 107 % of control | dose: 6.25 mg/kg/injection, schedule: Q01DX009 (ip), vehicle: saline with Tween-80 104 % of control | dose: 12.5 mg/kg/injection, schedule: Q01DX009 (ip), vehicle: saline with Tween-80 105 % of control and 110 % of control | dose: 25.0 mg/kg/injection, schedule: Q01DX009 (ip), vehicle: saline with Tween-80 105 % of control [middle of 5 runs] | [4] 108 % of control [middle of 8 runs]

COc1cc(C(C)(C)C)cc(OC)c1Br
inactive: [2] 101 % of control | [3] 88 % of control | [4] 90 % of control

O=C1NCC2CCCC1C2 (stereo unspecified)
inactive: dose: 50.0 mg/kg/injection, schedule: Q01DX005 (ip), vehicle: saline with Tween-80 101 % of control | dose: 100.0 mg/kg/injection, schedule: Q01DX005 (ip), vehicle: saline with Tween-80 100 % of control | dose: 200.0 mg/kg/injection, schedule: Q01DX005 (ip), vehicle: saline with Tween-80 97 % of control

CCCCOC(=O)c1ccccc1C(=O)O.CCCCOC(=O)c1ccccc1C(=O)O.[Cu+2]
inactive: dose: 6.25 mg/kg/injection, schedule: Q04DX003 (ip), vehicle: saline with Tween-80 102 % of control | dose: 12.5 mg/kg/injection, schedule: Q04DX003 (ip), vehicle: saline with Tween-80 96 % of control | dose: 25.0 mg/kg/injection, schedule: Q04DX003 (ip), vehicle: saline with Tween-80 102 % of control
